How the values were obtained:
Test in all cases: MIC, broth microdilution (CLSI), substance alone or ATB combined with compound at 4 or 8 μg/mL
Assay type in all cases: cell-based, A. baumannii
Conditions in all cases: Acinetobacter baumannii, substance alone, read-out: MIC
ABA UFR151 = tested on: ABA UFR151
Summary of the method: (§1)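 Growth inhibition endpoint, read visually after 16-20 h at 35° C in ambient air. Cation-adjusted Mueller-Hinton broth, inoculum 5·10^5 CFU/mL, CLSI M7-A7 protocol.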

ABA UFR152 = tested on: ABA UFR152
Summary of the method: as §1

ABA UFR153 = tested on: ABA UFR153
Summary of the method: as §1

ABA UFR154 = tested on: ABA UFR154
Summary of the method: as §1

ABA UFR155 = tested on: ABA UFR155
Summary of the method: as §1

ABA UFR156 = tested on: ABA UFR156
Summary of the method: as §1

ABA UFR157 = tested on: ABA UFR157
Summary of the method: as §1

ABA UFR158 = tested on: ABA UFR158
Summary of the method: as §1

ABA UFR159 = tested on: ABA UFR159
Summary of the method: as §1

ABA UFR160 = tested on: ABA UFR160
Summary of the method: as §1

ABA UFR161 = tested on: ABA UFR161
Summary of the method: as §1

Measured: MIC

O=C1N2CC(n3cccn3)=C[C@H](C2)N1OS(=O)(=O)[O-].[Na+] [Example 15, sodium [(5R)-7-oxo-3-pyrazol-1-yl-1,6-diazabicyclo[3.2.1]oct-3-en-6-yl] sulfate]
> 32 µg/mL: all assays above

— patent US20200024278A1, “COMPOSITION COMPRISING ANTIBIOTIC COMPOUND AND AN HETEROCYCLIC COMPOUND AND THEIR USE IN PREVENTING OR TREATING BACTERIAL INFECTIONS” (MUTABILIS, priority 2016, published 2020)
